Measured values taken from article PMC9780857 (International Journal of Molecular Sciences, 2022).
In brackets after ≈: the same amount, converted by molar mass. Entries after “also recorded” stand apart in the source; their conditions may differ. Where two headings read alike, the source gives them in different places.

Tests used:
mOct2 [1] = molecular target: T1, mOct2 (Mus musculus, UniProt O70577); test: Inhibition of mOct2-mediated 14C-metformin uptake in transfected HEK293 cells; format: cell-based; parameters: expressed in transfected cells; host or cells: HEK293 (stably transfected)
T1 sequence (O70577 1-553): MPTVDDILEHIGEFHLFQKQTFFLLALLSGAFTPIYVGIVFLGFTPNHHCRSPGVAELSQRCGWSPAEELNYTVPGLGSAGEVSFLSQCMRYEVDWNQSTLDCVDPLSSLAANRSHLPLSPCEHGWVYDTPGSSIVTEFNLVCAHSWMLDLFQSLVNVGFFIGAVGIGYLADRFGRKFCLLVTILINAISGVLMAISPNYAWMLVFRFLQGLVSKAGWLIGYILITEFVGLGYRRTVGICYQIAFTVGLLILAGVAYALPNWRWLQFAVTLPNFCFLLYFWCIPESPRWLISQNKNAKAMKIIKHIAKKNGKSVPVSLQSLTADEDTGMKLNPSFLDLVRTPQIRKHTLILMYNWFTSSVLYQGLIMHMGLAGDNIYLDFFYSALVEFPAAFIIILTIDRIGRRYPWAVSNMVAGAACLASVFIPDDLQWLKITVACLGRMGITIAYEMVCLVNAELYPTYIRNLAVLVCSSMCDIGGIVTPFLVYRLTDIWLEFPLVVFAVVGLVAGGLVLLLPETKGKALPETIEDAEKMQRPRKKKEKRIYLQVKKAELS
Experimental: (§1) The uptake assays were performed as previously described in 24-well plates. […] After incubation, the uptake was stopped by aspirating the reaction mixture and washing the cells three times with 0.4 mL ice-cold PBS buffer. Cells were then solubilized with 0.6 mL of 1 N NaOH, overnight. The whole content of each well (0.6 mL) was transferred to a scintillation vial (Perkin Elmer). The radio-labelled amount was determined by liquid scintillation counting.
(§2) All inhibition experiments were conducted on at least two separate days in triplicate.
(§3) For screening experiments, cis-inhibition was carried out in duplicate by measuring the uptake of the labeled probe substrate in the absence and presence of 10 µM or 100 µM of the respective pesticide or drug. […] Inhibitory effects in percent were calculated from net-uptake. […]

[2] = Highest soluble concentration in assay buffer (determined visually); format: physicochemical; conditions: assay buffer (HBSS/HEPES), aqueous buffer, HBSS/HEPES pH 7.4
hOCT2 [3] = molecular target: T2, hOCT2 (Homo sapiens, UniProt O15244); test: Inhibition of hOCT2-mediated 3H-MPP uptake in transfected HEK293 cells; format: cell-based; parameters: expressed in transfected cells; host or cells: HEK293 (stably transfected)
T2 sequence (O15244 1-555): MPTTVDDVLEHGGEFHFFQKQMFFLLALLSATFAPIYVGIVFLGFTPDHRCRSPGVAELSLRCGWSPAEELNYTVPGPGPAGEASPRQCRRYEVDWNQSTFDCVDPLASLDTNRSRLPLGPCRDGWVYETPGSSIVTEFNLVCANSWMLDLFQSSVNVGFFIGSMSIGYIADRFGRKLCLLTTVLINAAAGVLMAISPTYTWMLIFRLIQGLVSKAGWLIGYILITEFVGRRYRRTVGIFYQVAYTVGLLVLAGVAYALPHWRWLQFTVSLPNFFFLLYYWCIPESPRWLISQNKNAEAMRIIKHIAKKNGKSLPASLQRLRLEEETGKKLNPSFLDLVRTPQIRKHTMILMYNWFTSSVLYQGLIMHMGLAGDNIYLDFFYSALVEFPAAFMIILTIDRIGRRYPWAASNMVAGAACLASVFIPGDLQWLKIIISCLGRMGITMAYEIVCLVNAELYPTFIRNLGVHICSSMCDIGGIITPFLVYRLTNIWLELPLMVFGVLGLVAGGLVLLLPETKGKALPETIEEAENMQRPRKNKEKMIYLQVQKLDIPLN
Experimental: (§4) With cDNA of hOCT2 (GeneBank: accession number: NM_003058.3) or mOct2 (NM_013667.2), stably overexpressing HEK293 cells were used for the experiments and empty vector-transfected HEK cells were used as control-HEK cells.
(§5) The uptake assays were performed as previously described in 24-well plates. Therefore, culture medium was aspirated, and each well was rinsed three times with 0.5 mL incubation buffer (HBSS supplemented with 20 mM HEPES, pH 7.4) and then incubated in 200 µL dosing solution containing ^3H-MPP or ^14C-metformin and the test compound. After incubation, the uptake was stopped by aspirating the reaction mixture and washing the cells three times with 0.4 mL ice-cold PBS buffer. Cells were then solubilized with 0.6 mL of 1 N NaOH, overnight. The whole content of each well (0.6 mL) was transferred to a scintillation vial (Perkin Elmer). The radio-labelled amount was determined by liquid scintillation counting.
(§6) […]. All inhibition experiments were conducted on at least two separate days in triplicate.
(§7) The Km and Vmax values were obtained using SigmaPlot version 13 by fitting the Michaelis–Menten equation V = Vmax*[S]/(Km + [S]), where V refers to the rate of substrate transport, Vmax refers to the maximum rate of substrate transport, [S] refers to the concentration of substrate, and Km is defined as the concentration of substrate at the half-maximal transport rate.

hOCT2 [4] = molecular target: T2, hOCT2; test: Inhibition of hOCT2-mediated 14C-metformin uptake in transfected HEK293 cells; format: cell-based; parameters: expressed in transfected cells; host or cells: HEK293 (stably transfected)
Experimental: as §1, §2, §3

mOct2 [5] = molecular target: T1, mOct2; test: Inhibition of mOct2-mediated 3H-MPP uptake in transfected HEK293 cells; format: cell-based; parameters: expressed in transfected cells; host or cells: HEK293 (stably transfected)
Experimental: as §4, §5, §6, §7

hOCT2 [6] = molecular target: T2, hOCT2; parameters: expressed in transfected cells; host or cells: HEK293 (stably transfected); conditions: cited from earlier work
hOCT2 [7] = molecular target: T2, hOCT2; conditions: MPP higher affinity than metformin
Experimental: as §1
(§8) All experiments were conducted on two separate days in triplicate.
(§9) The cellular protein amounts were analyzed in parallel to the transport experiments by the Bradford method as previously described.
as §7

mOct2 [8] = molecular target: T1, mOct2; conditions: MPP higher affinity than metformin
Experimental: as §1, §8, §9, §7

[9] = substrate: C[n+]1ccc(-c2ccccc2)cc1; test: cells, lysate or membranes; conditions: other: substrate, metformin 2 min, MPP 1 min, 37 °C, pH 7.4
[10] = HEK293; read-out: Inhibitory Effects (%) mOct2 10 µM Mean
[11] = HEK293; read-out: Inhibitory Effects (%) mOct2 100 µM Mean
[12] = up to 100 µM (highest soluble concentration)
[13] = HEK293, read-out: Inhibitory Effects (%) mOct2 10 µM Mean
[14] = HEK293, read-out: Inhibitory Effects (%) mOct2 100 µM Mean
[15] = HEK293, read-out: Inhibitory Effects (%) hOCT2 10 µM Mean
[16] = HEK293, read-out: Inhibitory Effects (%) hOCT2 100 µM Mean

Question: Which IC50 (mOct2 [1]) does the source give for `COc1cc2c(cc1OC)CN(CCc1ccc(NC(=O)c3cccc4c(=O)c5cccc(OC)c5[nH]c34)cc1)CC2` [Elacridar] here?
Answer: 1.9 µM

Question: And the inhibition at 10 µM (mOct2 [1]; [10])?
Answer: 56%

Question: And the inhibition at 100 µM (mOct2 [1]; [11])?
Answer: 81%

Question: And the “Fold higher inhibitory potency to mouse than to human OCT2 (IC50 ratio)” value (mOct2 [1]; metformin as substrate)?
Answer: 10 fold

Question: And the solubility [2]?
Answer: 100 µM (≈ 56.4 µg/mL)

Question: And the “IC50, hOCT2-mediated MPP uptake” value (hOCT2 [3]; 2 nM [3H]MPP)?
Answer: no IC50 value could be determined; also recorded: calculation of an IC50 value was not possible

Question: And the “Maximum inhibition of hOCT2-mediated MPP uptake” value (hOCT2 [3]; [12])?
Answer: ≤ 60%

Question: What about the IC50 (hOCT2 [4]) of the same molecule?
Answer: 20 µM

Question: What about the inhibition at 10 µM (hOCT2 [4]; HEK293; read-out: Inhibitory Effects (%) hOCT2 10 µM Mean) of the same molecule?
Answer: 25%

Question: What about the inhibition at 100 µM (hOCT2 [4]; HEK293; read-out: Inhibitory Effects (%) hOCT2 100 µM Mean) of the same molecule?
Answer: 65%

Question: What about the “IC50, mOct2-mediated MPP uptake” value (mOct2 [5]; 2 nM [3H]MPP) of the same molecule?
Answer: no IC50 value could be determined; also recorded: calculation of an IC50 value was not possible

Question: And the “Maximum inhibition of mOct2-mediated MPP uptake” value (mOct2 [5]; [12])?
Answer: ≤ 60%

Question: With `CNC(=C[N+](=O)[O-])NCCSCc1ccc(CN(C)C)o1` [Ranitidine] as the molecule, how does the inhibition at 10 µM (mOct2 [1]; [10]) read?
Answer: -37%

Question: What about the inhibition at 100 µM (mOct2 [1]; [11]) of the same molecule?
Answer: -16%

Question: What about the Km (hOCT2 [6]; ref 36 (Tahara et al.), read-out: Km, substrate of hOCT2) of the same molecule?
Answer: 65.2 µM

Question: And the inhibition at 10 µM (hOCT2 [4]; HEK293, 10 µM test compound; 1 µM [14C]metformin, 2 min, HEK293; negative = stimulation; read-out: Inhibitory Effects (%) hOCT2 10 µM Mean)?
Answer: -43%

Question: And the inhibition at 100 µM (hOCT2 [4]; HEK293, 100 µM test compound; 1 µM [14C]metformin, 2 min, HEK293; negative = stimulation; read-out: Inhibitory Effects (%) hOCT2 100 µM Mean)?
Answer: -33%

Question: Which results are given for `C=CCOC(Cn1ccnc1)c1ccc(Cl)cc1Cl` (stereo not drawn) [Imazalil]?
Answer: IC50 (mOct2 [1]): 0.58 µM; inhibition at 10 µM (mOct2 [1]; [13]): 83%; inhibition at 100 µM (mOct2 [1]; [14]): 97%; Fold higher inhibitory potency to mouse than to human OCT2 (IC50 ratio) (mOct2 [1]; metformin as substrate): 8 fold; IC50 (hOCT2 [3]): 51 ± 16 µM; Fold higher IC50 for hOCT2 than for mOct2 (hOCT2 [3]; MPP as substrate): 2 fold; IC50 (hOCT2 [4]): 4.7 µM; inhibition at 10 µM (hOCT2 [4]; [15]): 52%; inhibition at 100 µM (hOCT2 [4]; [16]): 93%; IC50 (mOct2 [5]): 23 ± 6 µM

Question: What does the source list for `C[n+]1ccc(-c2ccccc2)cc1.[I-]` [MPP, 1-Methyl-4-phenylpyridinium iodide]?
Answer: Fold difference in affinity (Km) of hOCT2 between MPP and metformin (hOCT2 [7]): 64 fold; Fold difference in affinity (Km) of mOct2 between MPP and metformin (mOct2 [8]): 89 fold

Question: With `C[n+]1ccc(-c2cc[n+](C)cc2)cc1` [Paraquat] as the molecule, how does the inhibition at 10 µM (mOct2 [1]; [13]) read?
Answer: -9%

Question: What about the inhibition at 100 µM (mOct2 [1]; [14]) of the same molecule?
Answer: -48%

Question: What about the Km (hOCT2 [6]; read-out: Km, concentration dependent uptake by human OCT2) of the same molecule?
Answer: 114 µM

Question: And the inhibition at 10 µM (hOCT2 [4]; [15])?
Answer: -15%

Question: And the inhibition at 100 µM (hOCT2 [4]; [16])?
Answer: -52%

B1: hOCT2 (Homo sapiens) (protein)
chain: MPTTVDDVLEHGGEFHFFQKQMFFLLALLSATFAPIYVGIVFLGFTPDHRCRSPGVAELSLRCGWSPAEELNYTVPGPGPAGEASPRQCRRYEVDWNQSTFDCVDPLASLDTNRSRLPLGPCRDGWVYETPGSSIVTEFNLVCANSWMLDLFQSSVNVGFFIGSMSIGYIADRFGRKLCLLTTVLINAAAGVLMAISPTYTWMLIFRLIQGLVSKAGWLIGYILITEFVGRRYRRTVGIFYQVAYTVGLLVLAGVAYALPHWRWLQFTVSLPNFFFLLYYWCIPESPRWLISQNKNAEAMRIIKHIAKKNGKSLPASLQRLRLEEETGKKLNPSFLDLVRTPQIRKHTMILMYNWFTSSVLYQGLIMHMGLAGDNIYLDFFYSALVEFPAAFMIILTIDRIGRRYPWAASNMVAGAACLASVFIPGDLQWLKIIISCLGRMGITMAYEIVCLVNAELYPTFIRNLGVHICSSMCDIGGIITPFLVYRLTNIWLELPLMVFGVLGLVAGGLVLLLPETKGKALPETIEEAENMQRPRKNKEKMIYLQVQKLDIPLN
Question: For B1, which Km [9] is on record?
Answer: 62 µM

B2: mOct2 (Mus musculus) (protein)
chain: MPTVDDILEHIGEFHLFQKQTFFLLALLSGAFTPIYVGIVFLGFTPNHHCRSPGVAELSQRCGWSPAEELNYTVPGLGSAGEVSFLSQCMRYEVDWNQSTLDCVDPLSSLAANRSHLPLSPCEHGWVYDTPGSSIVTEFNLVCAHSWMLDLFQSLVNVGFFIGAVGIGYLADRFGRKFCLLVTILINAISGVLMAISPNYAWMLVFRFLQGLVSKAGWLIGYILITEFVGLGYRRTVGICYQIAFTVGLLILAGVAYALPNWRWLQFAVTLPNFCFLLYFWCIPESPRWLISQNKNAKAMKIIKHIAKKNGKSVPVSLQSLTADEDTGMKLNPSFLDLVRTPQIRKHTLILMYNWFTSSVLYQGLIMHMGLAGDNIYLDFFYSALVEFPAAFIIILTIDRIGRRYPWAVSNMVAGAACLASVFIPDDLQWLKITVACLGRMGITIAYEMVCLVNAELYPTYIRNLAVLVCSSMCDIGGIVTPFLVYRLTDIWLEFPLVVFAVVGLVAGGLVLLLPETKGKALPETIEDAEKMQRPRKKKEKRIYLQVKKAELS
Question: With B2 as the molecule, how does the Km [9] read?
Answer: 40 µM
